Laboratory results published in ChEMBL document CHEMBL1127178, “Nucleosides and nucleotides. 117. A transition-state analogue in purine nucleotide biosynthesis: the design and synthesis of an imidazo[4,5-c]azepine nucleoside” (Bioorg Med Chem Lett, 1993).
Converted amounts (≈) assume the structure as drawn.

Tested on: L1210
Assay: Cytotoxicity of compound was determined in terms of effective concentration required against murine L1210 cells
Assay type: functional, cell-based
Conditions: Mus musculus

## O=C1NC(O)C=Cc2c1ncn2C1O[C@H](CO)C(O)[C@H]1O (single isomer, unassigned)
  EC50: 5 µg/mL (≈ 16.8 µM)
